Test results published in the supplement of paper PMC8671470.

Assays:
Experiment in all cases: cell viability (% survival relative to DMSO control); higher = less cytotoxic
Conditions in all cases: 72 h
[1] = system: HL-60
Procedure: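 8x8 drug-combination matrices (0-5000 nM; rosiglitazone and lestaurtinib 0-1000 nM) were run in HL-60 cells for 72 h with a CellTiter-Glo read-out. Survival is normalised to DMSO and 10 µM bortezomib and clipped at 100%. Bliss synergy was analysed in SynergyFinder.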

[2] = system: Mono-Mac-6
Procedure: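 8x8 drug-combination matrices (0–5000 nM; rosiglitazone and lestaurtinib 0–1000 nM) were run in Mono-Mac-6 cells for 72 h with CellTiter-Glo read-out. Survival is normalised to DMSO and 10 µM bortezomib and clipped at 100%.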

[3] = system: BV-173
Procedure: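 8x8 drug-combination matrices (0–5000 nM; rosiglitazone and lestaurtinib 0–1000 nM) were run in BV-173 cells for 72 h with CellTiter-Glo read-out. Survival is normalised to DMSO and 10 µM bortezomib and clipped at 100%.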

CN(C)C(=O)n1nnnc1Cc1ccc(-c2ccccc2)cc1 + CCOC(=O)N1c2ccc(C(F)(F)F)cc2[C@@H](N(Cc2cc(C(F)(F)F)cc(C(F)(F)F)c2)C(=O)OC)C[C@H]1CC [Torcetrapib]
cell viability [%]
Conditions	drug1 concentration 5 nM	drug1 concentration 10 nM	drug1 concentration 50 nM	drug1 concentration 100 nM	drug1 concentration 500 nM	drug1 concentration 1000 nM	drug1 concentration 5000 nM
[1], drug2 concentration 5 nM	89.2	> 100	64.3	> 100	94.3	> 100	8.91
[1], drug2 concentration 10 nM	> 100	> 100	> 100	> 100	> 100	90	15.4
[1], drug2 concentration 50 nM	81.6	> 100	86.8	80.8	79.3	87.4	6.94
[1], drug2 concentration 100 nM	91.3	> 100	> 100	82.7	> 100	80	14.4
[1], drug2 concentration 500 nM	> 100	> 100	> 100	> 100	> 100	85	6.21
[1], drug2 concentration 1000 nM	> 100	> 100	> 100	> 100	98.3	> 100	13
[1], drug2 concentration 5000 nM	> 100	> 100	> 100	> 100	> 100	78.8	0
[2], drug2 concentration 5 nM	> 100	> 100	> 100	> 100	82.7	86.1	-0.88
[2], drug2 concentration 10 nM	93	86.3	> 100	92	69	90.7	0.43
[2], drug2 concentration 50 nM	> 100	89.7	93.7	95.9	> 100	58.1	1.57
[2], drug2 concentration 100 nM	89	> 100	> 100	> 100	> 100	96.6	0.14
[2], drug2 concentration 500 nM	91.9	> 100	> 100	97	> 100	> 100	0.52
[2], drug2 concentration 1000 nM	99.7	86.5	98.8	> 100	> 100	> 100	2.08
[2], drug2 concentration 5000 nM	90.6	88.3	> 100	93.4	> 100	74.2	0
[3], drug2 concentration 5 nM	> 100	> 100	> 100	83.6	86.7	61	-1.29
[3], drug2 concentration 10 nM	79.6	99.9	97.9	77.9	64.3	67	-0.12
[3], drug2 concentration 50 nM	70.5	94.4	69.5	70.6	61	53.7	1.13
[3], drug2 concentration 100 nM	62.8	69	80.1	87.3	> 100	45.6	-0.25
[3], drug2 concentration 500 nM	73.5	> 100	> 100	83.8	95.5	86	0.45
[3], drug2 concentration 1000 nM	80.8	68.8	94.8	94.5	> 100	71.3	1.28
[3], drug2 concentration 5000 nM	61.4	64.7	62	69.6	77.6	24.2	0

Oc1ncc(F)c(O)n1 [5-fluorouracil] + C[C@]12O[C@H](C[C@]1(O)CO)n1c3ccccc3c3c4c(c5c6ccccc6n2c5c31)CNC4=O [Lestaurtinib]
cell viability [%]
Conditions	drug1 concentration 5 nM	drug1 concentration 10 nM	drug1 concentration 50 nM	drug1 concentration 100 nM	drug1 concentration 500 nM	drug1 concentration 1000 nM	drug1 concentration 5000 nM
[1], drug2 concentration 1 nM	> 100	> 100	53	> 100	89.7	66.2	62.9
[1], drug2 concentration 5 nM	> 100	79.6	> 100	71.6	91.6	64.7	80.9
[1], drug2 concentration 10 nM	73.2	98.7	> 100	> 100	84.2	50.3	66.5
[1], drug2 concentration 50 nM	72	85.6	56.1	67.8	53.5	77.1	43
[1], drug2 concentration 100 nM	60.5	67.5	68.8	63.6	74.3	51.8	32.6
[1], drug2 concentration 500 nM	32.8	32.6	48.9	41.5	35.7	33.5	26.1
[1], drug2 concentration 1000 nM	8.89	19.8	19.4	20.8	52.9	25.7	0
[2], drug2 concentration 1 nM	> 100	> 100	> 100	98	81.7	66.8	43.8
[2], drug2 concentration 5 nM	> 100	62.4	76.5	65.3	69.7	54.7	48
[2], drug2 concentration 10 nM	58.5	59.6	61.9	68	42.9	54.4	50.9
[2], drug2 concentration 50 nM	20.5	20.9	19	21.8	19.7	19.4	21.1
[2], drug2 concentration 100 nM	15.4	11.6	14.2	12.9	8.95	10.9	7.36
[2], drug2 concentration 500 nM	1.8	1.6	3.44	3.7	1.89	2.85	1.13
[2], drug2 concentration 1000 nM	-0.9	1.2	0.62	2.92	5.56	0.83	0
[3], drug2 concentration 1 nM	> 100	> 100	> 100	> 100	86.1	79.2	47.6
[3], drug2 concentration 5 nM	> 100	81.2	85.7	86.6	> 100	82.8	69.9
[3], drug2 concentration 10 nM	93	95.9	87.7	> 100	72.4	74.2	71.8
[3], drug2 concentration 50 nM	60.2	59.9	50	68.2	58.5	59.2	35
[3], drug2 concentration 100 nM	68	43.6	46.5	47.5	40.6	44.3	20.2
[3], drug2 concentration 500 nM	18.1	36.8	20.9	25.8	20.4	20.7	9.65
[3], drug2 concentration 1000 nM	19.6	37.9	24.6	30.9	42.5	27.9	8.5

CN(C)CCNC(=O)c1cccn2c(=O)c3cc4ccccc4cc3nc12 [Bmh-21] + O=C(O)CC[N+](=O)[O-] [3-nitropropionic acid]
cell viability [%]
Conditions	drug1 concentration 5 nM	drug1 concentration 10 nM	drug1 concentration 50 nM	drug1 concentration 100 nM	drug1 concentration 500 nM	drug1 concentration 1000 nM	drug1 concentration 5000 nM
[1], drug2 concentration 5 nM	76.1	> 100	> 100	> 100	34.7	29.4	11.4
[1], drug2 concentration 10 nM	85.5	> 100	> 100	89.3	54.7	48.5	34
[1], drug2 concentration 50 nM	90.2	83.1	> 100	> 100	57	52.6	7.17
[1], drug2 concentration 100 nM	> 100	> 100	> 100	> 100	45.9	28.8	4.7
[1], drug2 concentration 500 nM	> 100	> 100	81.7	> 100	53.9	70	13.8
[1], drug2 concentration 1000 nM	> 100	62.9	> 100	> 100	77.4	1.67	50.4
[1], drug2 concentration 5000 nM	> 100	> 100	68.7	> 100	22	24.2	0
[2], drug2 concentration 5 nM	76.5	> 100	> 100	83.1	56.5	60.2	63.5
[2], drug2 concentration 10 nM	> 100	> 100	> 100	> 100	70.1	83.3	45.7
[2], drug2 concentration 50 nM	> 100	91.1	87	> 100	63.6	67.4	49.9
[2], drug2 concentration 100 nM	98.2	> 100	> 100	79.8	73.9	74.2	> 100
[2], drug2 concentration 500 nM	90.6	> 100	91.9	> 100	> 100	72.2	44.8
[2], drug2 concentration 1000 nM	96.3	97	88.2	90.7	> 100	83.4	83.5
[2], drug2 concentration 5000 nM	> 100	76.8	> 100	> 100	67.5	61	69.3
[3], drug2 concentration 5 nM	> 100	> 100	> 100	95.6	6.08	1.91	0.1
[3], drug2 concentration 10 nM	94.1	> 100	> 100	> 100	19.6	3.29	-1.01
[3], drug2 concentration 50 nM	> 100	79.4	83.4	> 100	0.68	35.3	-0.78
[3], drug2 concentration 100 nM	82.9	> 100	> 100	94.8	2.69	-0.53	0.59
[3], drug2 concentration 500 nM	> 100	86.6	88.3	> 100	38.2	68	-0.99
[3], drug2 concentration 1000 nM	92	> 100	> 100	66.9	10.4	-1.13	0.46
[3], drug2 concentration 5000 nM	> 100	> 100	> 100	99.5	0.21	-1.32	0
